According to US11629201B2, “PSMA-binding agents and uses thereof” (ITM Isotope Technologies Munich SE, priority 2017, dated 2023):
Where “and” joins values, the source holds several entries; their conditions need not be identical. Identical values can stand only once.

Experiments:
[1] = tested on: prostate adenocarcinoma with metastases; assay: Individual curative trial, SPECT-CT, Lutetium-177 labeled compound (Case 1); type: in vivo, human; details: patient, radiolabeled with Lutetium-177
Protocol: The compound PSMA-ALB-06, radiolabeled with therapeutic radionuclide Lutetium-177 was used in the scope of an individual curative trial in a patient with mildly differentiated prostate adenocarcinoma with extensive bilobar liver metastases, as well as disseminated osteoblastic metastases (in the pelvic region), and polytopic voluminous lymph node metastases. The evaluation of the biodistribution and in vivo behavior of the radiolabeled compound PSMA-ALB-06 was performed by means of SPECT-CT measurements.
The SPECT-CT visualization was performed at different time points up to 46 hours post injection (p.i.). […] The blood clearance is completed within first hours, whereas the unspecific uptake in healthy organs (especially liver, salivary and kidney) remains moderate over the time.

[2] = tested on: metastatic castration-resistant prostate cancer; assay: Individual curative trial, PET-CT, Gallium-68 labeled compound (Case 2); type: in vivo, human; details: patient; radiolabeled with Gallium-68
From the text: The compound PSMA-ALB-06, radiolabeled with a positron emitting radionuclide Gallium-68 was used in an individual curative trial in a patient with metastatic castration-resistant prostate cancer as a diagnostic agents for PET-CT. […] The high contrast of the images increases over the time after injection confirming the prolonged blood clearance and high specific uptake in the tumors.

[3] = tested on: PC-3 PIP/flu tumor-bearing mice; assay: Biodistribution studies in PC-3 PIP/flu tumor-bearing mice; details: for Tumor-to-blood / Tumor-to-kidney / Tumor-to-liver / Tu-to-muscle: PC-3 PIP tumor
mouse plasma proteins = assay: Ultrafiltration assay, binding to mouse plasma proteins; type: in vitro ADME
Protocol: Filter Assay. […] In addition, the radioligands were diluted in PBS (buffer solution without proteins) as a control experiment. Aliquots of the solutions were loaded onto an ultrafiltration device and centrifuged. The filtered activity was measured with a γ-counter and used for calculating the plasma protein-bound activity (retained on the filter membrane) as the percentage of total added activity. […] Statistical analysis (one-way ANOVA with Bonferroni's multiple comparison post-test) was performed using GraphPad Prism software, version 7. A p-value of <0.05 was considered statistically significant.

[4] = tested on: PSMA-positive PC-3 PIP cells; assay: Cell uptake and internalization in PSMA-positive PC-3 PIP cells; type: cell-based
human plasma proteins = assay: Ultrafiltration assay, binding to human plasma proteins
Protocol: Therefore, the compounds were labeled with ^177Lu at a specific activity of 50 MBq/nmol and incubated in human plasma samples or PBS at room temperature. The free and plasma-bound fractions were separated using a centrifree ultrafiltration device (4104 centrifugal filter units [Millipore]; 30000 Da nominal molecular weight limit, methylcellulose micropartition membranes). The incubated solution was loaded to the ultrafiltration device and centrifuged at 2500 rpm for 40 min at 20° C. Samples from the filtrate were taken an analyzed for radioactivity in a gamma-counter. The amount of plasma-bound compound was calculated as the fraction of radioactivity measured in the filtrate relative to the corresponding loading solution (set to 100%).
Determination of Albumin-binding Properties. The binding of the radioligands to human plasma proteins was determined by an ultrafiltration assay. […] Three independent experiments were performed in duplicates with both radioligands and the data was fitted to a semi-logarithmic plot (non-linear regression, one-site, specific binding) to obtain the half maximum binding (B50) in GraphPad Prism software (version 7).
The ^177Lu-labeled PSMA ligands (50 MBq/nmol) were diluted in mouse plasma (Rockland, USA) and human plasma (Stiftung Blutspende SRK Aargau-Solothurn, Switzerland), respectively, and incubated for 15 min at room temperature. In addition, the radioligands were diluted in PBS (buffer solution without proteins) as a control experiment. Aliquots of the solutions were loaded onto an ultrafiltration device and centrifuged. The filtered activity was measured with a γ-counter and used for calculating the plasma protein-bound activity (retained on the filter membrane) as the percentage of total added activity. […] Statistical analysis (one-way ANOVA with Bonferroni's multiple comparison post-test) was performed using GraphPad Prism software, version 7. A p-value of <0.05 was considered statistically significant.

[5] = n-Octanol/PBS distribution coefficient (log D); type: physicochemical; details: n-octanol/PBS; radiolabeled ligand, 50 MBq/nmol, PBS pH 7.4
Protocol: The radioligand (0.5 MBq; 10 pmol, 25 μL) was then added to a reagent tube containing 1475 μL of PBS pH 7.4 and 1500 μL of n-octanol. The vials were vortexed vigorously followed by a centrifugation step for phase separation.
Determination of n-Octanol/PBS Distribution Coefficients (Log D Values). The distribution coefficients (log D values) of the ^64Cu-labeled radioligands (50 MBq/nmol) were determined by a shake-flask method using liquid-liquid extraction followed by phase separation as previously reported. Three experiments were performed with five replicates for each radioligand. Statistical significance of the data (p<0.05) was evaluated using an unpaired t-test (GraphPad Prism software, version 7).
Determination of n-Octanol/PBS Distribution Coefficients (Log D Values). […] A sample of the radioligands was mixed with phosphate-buffered saline (PBS) and n-octanol followed by vigorous vortexing. […] Three experiments were performed with five replicates for each compound.

[6] = tested on: PC-3 PIP/flu tumor-bearing mice; assay: PET/CT imaging of PC-3 PIP/flu tumor-bearing mice; type: in vivo; details: 16 h after injection
Protocol: PET/CT Imaging Studies. PET/CT experiments were performed at 1 h, 4 h and 24 h after injection of the radioligands (5 MBq/l nmol). Mice were injected into a lateral tail vein with the respective radioligand (5 MBq, 1 nmol, 100 μL) diluted in saline containing 0.05% BSA. PET/CT scans were performed using a small-animal PET/CT scanner (G8, Perkin Elmer, Massachusetts, U.S.) as previously reported. The PET scans lasted for 10 min and were followed by a CT scan of 1.5 min. During the in vivo scans, the mice were anesthetized with a mixture of isoflurane and oxygen. Reconstruction of acquired data was performed using the software of the provider of the G8 scanner. All images were prepared using VivoQuant post-processing software (version 3.0, inviCRO Imaging Services and Software, Boston USA). The images were prepared by cutting 2% of the lower scale to make the tumors, liver and kidneys best visible.

[7] = non-decay-corrected biodistribution data up to 192 h p.i.

Q: With Cc1ccc(CCCC(=O)NCCCCC(NC(=O)CN2CCN(CC(=O)O)CCN(CC(=O)O)CCN(CC(=O)O)CC2)C(=O)NCC2CCC(C(=O)NC(Cc3ccc4ccccc4c3)C(=O)NCCCCC(NC(=O)NC(CCC(=O)O)C(=O)O)C(=O)O)CC2)cc1 (stereo not shown) [PSMA-ALB-06] as the compound, how does the “uptake in malignant tissues (SPECT-CT)” value [1] read?
A: The value was “substantial specific uptake of the radiolabeled compound in malignant tissues”.

Q: What about the “blood circulation and bioavailability” value ([1]; up to 46 hours p.i.) of the same compound?
A: The value was “prolonged blood circulation and improved bioavailability”.

Q: And the “visualization of malignant tissues (PET)” value [2]?
A: Its value is “Malignant tissues could be visualized by means of PET with high specificity”.

Q: Which results are given for O=C(O)CCC(NC(=O)NC(CCCCNC(=O)C(Cc1ccc2ccccc2c1)NC(=O)C1CCC(CNC(=O)C(CCCCNC(=O)CN2CCN(CC(=O)O)CCN(CC(=O)O)CCN(CC(=O)O)CC2)NC(=O)CC(NC(=O)CC(NC(=O)CC(NC(=O)CCCc2ccc(I)cc2)C(=O)O)C(=O)O)C(=O)O)CC1)C(=O)O)C(=O)O (stereo not shown) [^177Lu-PSMA-ALB-07, metal not drawn]?
A: Blood ([3]; 4 h p.i.): 6.67 ± 2.04 % IA/g; Bone ([3]; 4 h p.i.): 1.30 ± 0.27 % IA/g; Heart ([3]; 4 h p.i.): 2.43 ± 0.78 % IA/g; Intestines ([3]; 4 h p.i.): 1.27 ± 0.45 % IA/g; Kidneys ([3]; 4 h p.i.): 67.0 ± 9.50 % IA/g; Liver ([3]; 4 h p.i.): 1.94 ± 1.02 % IA/g; Lung ([3]; 4 h p.i.): 4.67 ± 0.92 % IA/g; Muscle ([3]; 4 h p.i.): 0.78 ± 0.22 % IA/g; PC-3 PIP Tumor ([3]; 4 h p.i.): 63.5 ± 27.4 % IA/g; PC-3 flu Tumor ([3]; 4 h p.i.): 1.80 ± 0.27 % IA/g; Salivary glands ([3]; 4 h p.i.): 2.09 ± 0.50 % IA/g; Spleen ([3]; 4 h p.i.): 3.41 ± 1.46 % IA/g; Stomach ([3]; 4 h p.i.): 1.09 ± 0.30 % IA/g; Tumor-to-blood ([3]; 4 h p.i.): 9327 ± 1.75; Tumor-to-kidney ([3]; 4 h p.i.): 0.88 ± 0.28; Tumor-to-liver ([3]; 4 h p.i.): 33.6 ± 6.56; Blood ([3]; 24 h p.i.): 0.79 ± 0.08 % IA/g; Bone ([3]; 24 h p.i.): 0.31 ± 0.10 % IA/g; Heart ([3]; 24 h p.i.): 0.40 ± 0.00 % IA/g; Intestines ([3]; 24 h p.i.): 0.20 ± 0.03 % IA/g; Kidneys ([3]; 24 h p.i.): 51.9 ± 6.34 % IA/g; Liver ([3]; 24 h p.i.): 0.52 ± 0.04 % IA/g; Lung ([3]; 24 h p.i.): 0.73 ± 0.06 % IA/g; Muscle ([3]; 24 h p.i.): 0.13 ± 0.01 % IA/g; PC-3 PIP Tumor ([3]; 24 h p.i.): 84.6 ± 14.2 % IA/g; PC-3 flu Tumor ([3]; 24 h p.i.): 0.80 ± 0.17 % IA/g; Salivary glands ([3]; 24 h p.i.): 0.43 ± 0.04 % IA/g; Spleen ([3]; 24 h p.i.): 1.14 ± 0.04 % IA/g; Stomach ([3]; 24 h p.i.): 0.18 ± 0.06 % IA/g; Tumor-to-blood ([3]; 24 h p.i.): 107 ± 12.2 and 107 ± 10; Tumor-to-kidney ([3]; 24 h p.i.): 1.64 ± 0.29 and 1.6 ± 0.2; Tumor-to-liver ([3]; 24 h p.i.): 162 ± 17.3 and 162 ± 14; Tumor-to-blood ([3]; 48 h p.i.): 154 ± 7; Tumor-to-kidney ([3]; 48 h p.i.): 2.3 ± 0.1; Tumor-to-liver ([3]; 48 h p.i.): 131 ± 13; Blood ([3]; 72 h p.i.): 0.40 ± 0.06 % IA/g; Bone ([3]; 72 h p.i.): 0.31 ± 0.06 % IA/g; Heart ([3]; 72 h p.i.): 0.21 ± 0.01 % IA/g; Intestines ([3]; 72 h p.i.): 0.10 ± 0.01 % IA/g; Kidneys ([3]; 72 h p.i.): 26.0 ± 1.58 % IA/g; Liver ([3]; 72 h p.i.): 0.44 ± 0.08 % IA/g; Lung ([3]; 72 h p.i.): 0.43 ± 0.02 % IA/g; Muscle ([3]; 72 h p.i.): 0.08 ± 0.01 % IA/g; PC-3 PIP Tumor ([3]; 72 h p.i.): 62.6 ± 6.35 % IA/g; PC-3 flu Tumor ([3]; 72 h p.i.): 0.43 ± 0.04 % IA/g; Salivary glands ([3]; 72 h p.i.): 0.21 ± 0.01 % IA/g; Spleen ([3]; 72 h p.i.): 0.49 ± 0.03 % IA/g; Stomach ([3]; 72 h p.i.): 0.10 ± 0.01 % IA/g; Tumor-to-blood ([3]; 72 h p.i.): 160 ± 37.0; Tumor-to-kidney ([3]; 72 h p.i.): 2.41 ± 0.18; Tumor-to-liver ([3]; 72 h p.i.): 147 ± 38.4; AUC PC-3 PIP tumor [3, 7]: 7007 ± 459 % IA/g · h; AUC blood [3, 7]: 180 ± 7.2 % IA/g · h; AUC kidneys [3, 7]: 3395 ± 201 % IA/g · h; AUC liver [3, 7]: 72 ± 3.6 % IA/g · h; Ratio of AUCs AUCTu-to-AUCBl ([3]; tumor to blood): 39; Ratio of AUCs AUC-Tu-to-AUC-Ki ([3]; tumor to kidneys): 2.1; Ratio of AUCs AUCTu-to-AUCLi ([3]; tumor to liver): 97; plasma protein-bound fraction (mouse plasma proteins): 64±2.1%; cell uptake ([4]; 2 h): 52-57%; internalized fraction ([4]; 2 h): 18-24%; cell uptake ([4]; 4 h): 60-63%; internalized fraction ([4]; 4 h): 20-26%; plasma protein-bound fraction (human plasma proteins; human plasma, ultrafiltration): 95±0.1%

Q: For Cc1ccc(CCCC(=O)NCCCC[C@H](NC(=O)CCC(C(=O)O)N2CCN(CC(=O)O)CCN(CC(=O)O)CC2)C(=O)NC[C@H]2CC[C@H](C(=O)N[C@H](Cc3ccc4ccccc4c3)C(=O)NCCCC[C@@H](NC(=O)N[C@H](CCC(=O)O)C(=O)O)C(=O)O)CC2)cc1 (stereo partly shown) [^64Cu-PSMA-ALB-89, metal not drawn], which Tu-to-muscle ([3]; 1 h p.i.) is on record?
A: Its Tu-to-muscle is 9.0 ± 1.13.

Q: And the Tumor-to-blood ([3]; 1 h p.i.)?
A: Its Tumor-to-blood is 0.91 ± 0.02.

Q: And the Tumor-to-kidney ([3]; 1 h p.i.)?
A: Its Tumor-to-kidney is 0.40 ± 0.02.

Q: And the Tumor-to-liver ([3]; 1 h p.i.)?
A: The Tumor-to-liver was 3.37 ± 0.31.

Q: And the Tu-to-muscle ([3]; 4 h p.i.)?
A: Its Tu-to-muscle is 36.3 ± 2.25.

Q: What about the Tumor-to-blood ([3]; 4 h p.i.) of the same compound?
A: Its Tumor-to-blood is 3.61 ± 0.30.

Q: And the Tumor-to-kidney ([3]; 4 h p.i.)?
A: The Tumor-to-kidney was 0.70 ± 0.04.

Q: What about the Tumor-to-liver ([3]; 4 h p.i.) of the same compound?
A: The Tumor-to-liver was 13.3 ± 1.20.

Q: What about the Blood ([3]; 24 h p.i.) of the same compound?
A: The Blood was under 3.2 % IA/g.

Q: And the “PC-3 PIP Tumor” value ([3]; 24 h p.i.)?
A: The value was 97.1±7.01 % IA/g.

Q: What about the Tu-to-muscle ([3]; 24 h p.i.) of the same compound?
A: Its Tu-to-muscle is 200±38.2.

Q: And the Tumor-to-blood ([3]; 24 h p.i.)?
A: Its Tumor-to-blood is 31.3 ± 3.82.

Q: And the Tumor-to-kidney ([3]; 24 h p.i.)?
A: Its Tumor-to-kidney is 2.68 ± 0.36.

Q: What about the Tumor-to-liver ([3]; 24 h p.i.) of the same compound?
A: The Tumor-to-liver was 23.6 ± 3.37.

Q: And the logD [5]?
A: Its logD is -2.3 ± 0.7.

Q: And the cell uptake ([4]; 2 h)?
A: Its cell uptake is about 46%.

Q: What about the internalized fraction ([4]; 2 h) of the same compound?
A: The internalized fraction was about 14%.

Q: What about the cell uptake ([4]; 4 h) of the same compound?
A: The cell uptake was about 52%.

Q: And the internalized fraction ([4]; 4 h)?
A: Its internalized fraction is about 14%.

Q: And the “half-maximum binding (B50), [HSA]-to-[radioligand] ratio” value (human plasma proteins; different dilutions of human plasma)?
A: Its value is 454 and 770.

Q: And the “tumor-to-kidney ratio of accumulated radioligand (visual examination)” value [6]?
A: Its value is over 1.
